What was measured:
Experiment in all cases: Test B pre-/postemergence plant response
Type in all cases: in vivo
[1] = tested on: lambsquarters (Chenopodium album); details: for Lambsquarters plant response rating: 8 g ai/ha
How it was run: (§1)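 Seeds were sown and sprayed preemergence, while plants at 2 to 18 cm (1- to 4-leaf stage) got postemergence sprays. Compounds were formulated in a non-phytotoxic solvent mixture with surfactant. After 13 to 15 days in a greenhouse, injury was rated visually against untreated controls, 0 (no effect) to 100 (complete control).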

[2] = tested on: bermudagrass (Cynodon dactylon); details: for Bermudagrass plant response rating: 8 g ai/ha
How it was run: as §1

[3] = tested on: Italian ryegrass (Lolium multiflorum); details: for Ryegrass, Italian plant response rating: 8 g ai/ha
How it was run: as §1

[4] = tested on: yellow nutsedge (Cyperus esculentus)
How it was run: as §1

corn (Zea mays) = details: for Corn plant response rating: 8 g ai/ha
How it was run: as §1

[5] = tested on: eastern black (E.B.) nightshade (Solanum ptycanthum); details: Preemergence
How it was run: as §1

wild oat (Avena fatua) = details: for Oat, Wild plant response rating: 8 g ai/ha
How it was run: as §1

kochia (Kochia scoparia) = details: for Kochia plant response rating: 8 g ai/ha
How it was run: as §1

[6] = tested on: giant foxtail (Setaria faberii); details: for Foxtail, Giant plant response rating: 8 g ai/ha
How it was run: as §1

[7] = tested on: johnsongrass (Sorghum halepense); details: for Johnsongrass plant response rating: 8 g ai/ha
How it was run: as §1

[8] = tested on: common ragweed (Ambrosia elation); details: for Ragweed plant response rating: 8 g ai/ha
How it was run: as §1

[9] = tested on: blackgrass (Alopecurus myosuroides); details: for Blackgrass plant response rating: 8 g ai/ha
How it was run: as §1

[10] = tested on: morningglory (Ipomoea coccinea); details: for Morningglory plant response rating: 8 g ai/ha
How it was run: as §1

[11] = tested on: surinam grass (Brachiaria decumbens); details: for Surinam Grass plant response rating: 8 g ai/ha
How it was run: as §1

[12] = Postemergence, 16 g ai/ha, scale 0 to 100
[13] = Postemergence, 31 g ai/ha, scale 0 to 100, 0 no effect, 100 complete control
[14] = Postemergence, 62 g ai/ha, scale 0 to 100
[15] = Preemergence, 16 g ai/ha, scale 0 to 100 (0 no effect, 100 complete control)
[16] = Preemergence, 31 g ai/ha, 0 to 100 scale, 0 no effect, 100 complete control
[17] = Preemergence, 62 g ai/ha, scale 0 to 100

CCc1cc(-c2ccc(Cl)cc2)nn1-c1c(O)cnn(C)c1=O [Compound 21]
80: Plant response rating, Bermudagrass [2, 13] | Plant response rating, Bermudagrass [2, 15] | Plant response rating, Corn (corn (Zea mays); [15])
70: Corn plant response rating (corn (Zea mays); Preemergence, scale 0 to 100)
40: Bermudagrass plant response rating ([2]; postemergence, 0-100 scale)
0: Lambsquarters plant response rating ([1]; postemergence, 0-100 scale) | Plant response rating, Lambsquarters [1, 12] | Plant response rating, Lambsquarters [1, 13] | Plant response rating, Lambsquarters [1, 14] | Plant response rating, Lambsquarters [1, 15] | Lambsquarters plant response rating ([1]; Preemergence, scale 0 to 100) | Nutsedge, Yellow plant response rating ([4]; 8 g ai/ha, postemergence, 0-100 scale) | Plant response rating, Nutsedge, Yellow [4, 12] | Plant response rating, Nutsedge, Yellow [4, 13] | Plant response rating, Nutsedge, Yellow [4, 14] | Plant response rating, Nutsedge, Yellow [4, 15] | Plant response rating, Nutsedge, Yellow [4, 16] | Plant response rating, Nutsedge, Yellow [4, 17] | Plant response rating, Nightshade, E. B. ([5]; 16 g ai/ha, scale 0 to 100 (0 no effect, 100 complete control)) | Plant response rating, Nightshade, E. B. ([5]; 31 g ai/ha, 0 to 100 scale, 0 no effect, 100 complete control) | Nightshade, E. B. plant response rating ([5]; 8 g ai/ha, scale 0 to 100) | Kochia plant response rating (kochia (Kochia scoparia); postemergence, 0-100 scale) | Plant response rating, Kochia (kochia (Kochia scoparia); [12]) | Plant response rating, Kochia (kochia (Kochia scoparia); [13]) | Plant response rating, Kochia (kochia (Kochia scoparia); [14]) | Plant response rating, Kochia (kochia (Kochia scoparia); [15]) | Plant response rating, Kochia (kochia (Kochia scoparia); [16]) | Plant response rating, Kochia (kochia (Kochia scoparia); [17]) | Kochia plant response rating (kochia (Kochia scoparia); Preemergence, scale 0 to 100) | Johnsongrass plant response rating ([7]; Preemergence, scale 0 to 100) | Ragweed plant response rating ([8]; postemergence, 0-100 scale) | Plant response rating, Ragweed [8, 12] | Plant response rating, Ragweed [8, 13] | Plant response rating, Ragweed [8, 14] | Plant response rating, Ragweed [8, 15] | Plant response rating, Ragweed [8, 16] | Plant response rating, Ragweed [8, 17] | Ragweed plant response rating ([8]; Preemergence, scale 0 to 100) | Morningglory plant response rating ([10]; postemergence, 0-100 scale) | Plant response rating, Morningglory [10, 12] | Plant response rating, Morningglory [10, 13] | Plant response rating, Morningglory [10, 14] | Plant response rating, Morningglory [10, 15] | Plant response rating, Morningglory [10, 16] | Plant response rating, Morningglory [10, 17] | Morningglory plant response rating ([10]; Preemergence, scale 0 to 100)
60: Plant response rating, Bermudagrass [2, 12] | Bermudagrass plant response rating ([2]; Preemergence, scale 0 to 100 (0 no effect, 100 complete control)) | Johnsongrass plant response rating ([7]; postemergence, 0-100 scale)
100: Plant response rating, Lambsquarters [1, 16] | Plant response rating, Lambsquarters [1, 17] | Plant response rating, Bermudagrass [2, 14] | Plant response rating, Bermudagrass [2, 17] | Plant response rating, Ryegrass, Italian [3, 12] | Plant response rating, Ryegrass, Italian [3, 13] | Plant response rating, Ryegrass, Italian [3, 14] | Plant response rating, Ryegrass, Italian [3, 15] | Plant response rating, Ryegrass, Italian [3, 17] | Plant response rating, Corn (corn (Zea mays); [12]) | Plant response rating, Corn (corn (Zea mays); [13]) | Plant response rating, Corn (corn (Zea mays); [14]) | Plant response rating, Oat, Wild (wild oat (Avena fatua); [12]) | Plant response rating, Oat, Wild (wild oat (Avena fatua); [13]) | Plant response rating, Oat, Wild (wild oat (Avena fatua); [14]) | Plant response rating, Foxtail, Giant [6, 12] | Plant response rating, Foxtail, Giant [6, 13] | Plant response rating, Foxtail, Giant [6, 14] | Plant response rating, Foxtail, Giant [6, 15] | Plant response rating, Foxtail, Giant [6, 16] | Plant response rating, Foxtail, Giant [6, 17] | Plant response rating, Johnsongrass [7, 14] | Plant response rating, Johnsongrass [7, 17] | Plant response rating, Blackgrass [9, 13] | Plant response rating, Blackgrass [9, 14] | Plant response rating, Blackgrass [9, 15] | Plant response rating, Blackgrass [9, 16] | Plant response rating, Blackgrass [9, 17] | Surinam Grass plant response rating ([11]; postemergence, 0-100 scale) | Plant response rating, Surinam Grass [11, 12] | Plant response rating, Surinam Grass [11, 13] | Plant response rating, Surinam Grass [11, 14] | Plant response rating, Surinam Grass [11, 15] | Plant response rating, Surinam Grass [11, 17]
90: Ryegrass, Italian plant response rating ([3]; Preemergence, scale 0 to 100) | Plant response rating, Oat, Wild (wild oat (Avena fatua); [16]) | Plant response rating, Johnsongrass [7, 12] | Plant response rating, Johnsongrass [7, 13] | Plant response rating, Johnsongrass [7, 16]
65: Oat, Wild plant response rating (wild oat (Avena fatua); Preemergence, scale 0 to 100)
85: Plant response rating, Bermudagrass [2, 16] | Plant response rating, Oat, Wild (wild oat (Avena fatua); [15]) | Foxtail, Giant plant response rating ([6]; Preemergence, scale 0 to 100) | Plant response rating, Johnsongrass [7, 15]
95: Plant response rating, Corn (corn (Zea mays); [16]) | Plant response rating, Oat, Wild (wild oat (Avena fatua); [17]) | Blackgrass plant response rating ([9]; postemergence, 0-100 scale) | Plant response rating, Blackgrass [9, 12] | Blackgrass plant response rating ([9]; Preemergence, scale 0 to 100)
50: Corn plant response rating (corn (Zea mays); postemergence, 0-100 scale)
98: Ryegrass, Italian plant response rating ([3]; postemergence, 0-100 scale) | Plant response rating, Corn (corn (Zea mays); [17]) | Oat, Wild plant response rating (wild oat (Avena fatua); postemergence, 0-100 scale) | Foxtail, Giant plant response rating ([6]; postemergence, 0-100 scale) | Surinam Grass plant response rating ([11]; Preemergence, scale 0 to 100)
